Laboratory results as given in patent US10130590B2, “Methods of treating cancer with atovaquone-related compounds” (DANA-FARBER CANCER INSTITUTE, INC., priority 2013, dated 2018).

Tests used:
STAT3 [1] = experiment: STAT3-luc reporter cells, IL-6 stimulated luciferase; format: cell-based; details: 10, 20, 30, or 40 μM for 1 hour, then IL-6 (10 ng/ml) 5 hours; relative to controls
Procedure: (§1) Western blotting was performed as previously described (Battle T E, Arbiser J, & Frank D A (2005) The natural product honokiol induces caspase dependent apoptosis in B-cell chronic lymphocytic leukemia (B-CLL) cells. Blood 106(2):690-697). Antibodies to phospho-MAPK (9101), total MAPK (9102), phospho-Y705 STAT3 (9131), phospho-S6 (2215), total S6 (2217), phospho-4E-BP1 (9451), total 4E-BP1 (9644), total RSK (9355), phospho-S6K (9234, 85 used at 1:5000), total S6K (2708), phospho-eIF2α (9721, used at 1:1000), total eIF2α (5324), ATF4 (11815, used at 1:1000), PDGFRβ (3169), IGF1Rβ (9750), EGFR (2232), and HER2 (2242) were from Cell Signaling Technology. Phospho-RSK antibody was from R&D (AF889). Antibodies to total STAT3 (sc-482) and gp130 (sc-656, used at 1:1000) were from Santa Cruz Biotechnology. Phospho-S727 STAT3 antibody was described previously (229). REDD1 antibody was from Proteintech (10638-1-AP, used at 1:1000). Antibody recognizing full-length and cleaved ATF6 was from Abcam (ab122897, used at 1:1000). Antibodies to tubulin (T5168) and beta actin (A5316) were from Sigma. All antibodies were used at 1:10000 dilution for western blot unless otherwise noted. For immunoprecipitations, cells were lysed in 500 μl lysis buffer (0.5% NP-40, 150 mM NaCl, 50 mM Tris pH 7.5, with protease and phosphatase inhibitors freshly added at 1:100 [Pierce, PI78443]) on ice for 15 minutes, then centrifuged for 10 minutes at 14,000 RPM and 4° C. The supernatant was transferred to a new tube and incubated with 10 μl JAK2 antibody (Santa Cruz sc-278) or a mix of two TYK2 antibodies, 10 μl of each (Santa Cruz sc-5271 and Cell Signaling Technology 9312). Immunoprecipitation was performed overnight at 4° C. with rotation. The next day, 75 μl of protein A/G beads (Santa Cruz sc-2003) were washed twice in lysis buffer, then incubated with immunoprecipitates overnight as before. The next day, the beads were spun down (1 min. at 7,500 RPM and 4° C.) and washed 3 times with 650 μl lysis buffer for 10 minutes at 4° C. with rotation, then boiled in 50 μl sample buffer+10% β-mercaptoethanol. For Western blot, 20 μl were loaded per lane. For detection of phospho-tyrosine, a mixture of two pan-phospho-tyrosine antibodies (Cell Signaling Technology 9411 and 9416, 1:1000 of each) was used. Antibody to phospho-Y1007/1008 JAK2 was from Cell Signaling 86 Technology (3771, used at 1:1000). Antibody to phospho-Y570 JAK2 was from Millipore (09-241, used at 1:1000). Luminometric Assays Luciferase reporter cell lines were described previously (186). Firefly luciferase values were normalized by concurrent cell viability. Cell viability was measured as ATP-dependent luminescence by Cell Titer Glo (Promega).
To determine if atovaquone inhibits STAT3, it was tested in a cell-based reporter system of STAT3 transcriptional activity (Nelson E A, et al. (2008) Nifuroxazide inhibits survival of multiple myeloma cells by directly inhibiting STAT3. Blood 112(13):5095-5102). These cells lack basal STAT3 activation; upon IL-6 treatment, STAT3 becomes activated and drives transcription of a STAT3-dependent luciferase reporter gene. […] Activity of firefly luciferase was measured and normalized by cell viability (Cell Titer Glo). […]
STAT3-luc reporter cells were pre-treated with atovaquone, buparvaquone or TDBHN (concentration 10, 20, 30, or 40 μM) for 1 hour, then stimulated with IL-6 (10 ng/ml) for 5 hours. The activity of firefly luciferase was measured and normalized by cell viability (Cell Titer Glo).

STAT3 [2] = experiment: Western blot of STAT3 phosphorylation in reporter and cancer cell lines; format: cell-based, human; details: U266, 2.5 hours; for STAT3 phosphorylation (analogs): buparvaquone 12.5 or 25 μM, Sigma analog 1, 5, or 25 μM, relative to vehicle; for STAT3 phosphorylation with UPR activators: tunicamycin 5 μg/ml, thapsigargin 1 μM, brefeldin A 3 μg/ml
Procedure: as §1
The mechanism by which atovaquone inhibits STAT3 was investigated. STAT3-luc reporter cells were pre-treated with atovaquone (20 μM) for 1 hr, and then stimulated with IL-6 (10 ng/ml) for 15 minutes, 30 minutes, 1 hours, or 2 hours. Since STAT3 transcriptional activity is critically dependent on tyrosine phosphorylation, Western blotting was performed to see if atovaquone affected STAT3 phosphorylation. […] Next, atovaquone was used to treat U266 (2.5 hours), HEL (6 hours), or INA-6 cells (4 hours). […] In U266 and INA-6 cells, the source of STAT3 activation is JAK-dependent IL-6 signaling, while in HEL cells, STAT3 is activated by mutant JAK2-V617F. Given that atovaquone inhibits constitutive STAT3 activation in cancer cells, it was asked whether atovaquone inhibits expression of endogenous STAT3 target genes in this context.
Since atovaquone reduced gp130 expression at the cell surface, it was asked whether this effect was accompanied by reduced total gp130 in the cell. To address this question, a time course of atovaquone treatment was performed and total cellular gp130 was measured by Western blotting in U266 cells treated with atovaquone at 20 μM. […]

mTOR pathway = experiment: Western blot of mTOR pathway markers (S6, S6K, 4E-BP1); format: cell-based; details: U266, 2.5 hours; buparvaquone 12.5 or 25 μM, Sigma analog 1, 5, or 25 μM; relative to vehicle
Procedure: as §1
K562 cells were treated with atovaquone (20 μM) or rapamycin (10 nM) for 1 hour or 5 hours, then analyzed by Western blot. […] The requirement for prolonged treatment to observe mTOR inhibition raised the possibility that this effect was mediated by an induced factor. To test this hypothesis, cells were pretreated with cycloheximide, a protein synthesis inhibitor. K562 cells were pre-treated with vehicle or cycloheximide (2 μg/ml) for 1 hour, then treated with vehicle or atovaquone (20 μM) for 5 hours. […] Similar results were obtained with actinomycin D, an inhibitor of mRNA synthesis.
To evaluate the role of REDD1, RNA interference was used to knock down its expression in adherent SKBR3 cells, given the relative ease of introducing siRNA into these cells. SKBR3 cells were transfected with control or REDD1 siRNA for 48 hours, then treated with atovaquone (25 μM) for 4 hours.
Next, U266 cells were treated with 12.5 or 25 μM buparvaquone or 1, 5, or 25 μM 2-(4-(trans-decahydronaphth-2-yl)butyl)-3-hydroxy-1,4-naphthoquinone (Sigma analog), or DMSO vehicle control, for 2.5 hours, after which cells were harvested and immunoblots were performed with antibodies for total and phospho STAT3 and total and phospho S6.

gp130 = experiment: Flow cytometry of cell-surface gp130; format: cell-based; details: U266, 2.5 hours; atovaquone 20 μM, JAK inhibitor 1 1 μM, brefeldin A 3 μg/ml
Procedure: (§2) Annexin V/PI staining was performed using Annexin V:FITC Apoptosis Detection Kit I (BD Biosciences). Staining for cell cycle analysis was performed as previously described (267). Staining for cell-surface receptors was performed in 50 μl PBS+2% FBS with 2 μl antibody to IL6R (BioLegend #352803) or 5 μl antibody to gp130 (BD Biosciences #555757) for 20 minutes on ice in the dark. Cells were washed twice, then resuspended in 300 μl of the same buffer. Samples were analyzed on a BD FACSCanto II machine. Transfection and siRNA Cells were reverse-transfected using Lipofectamine RNAiMAX (Invitrogen); the culture medium was changed 24 hours later. Control siRNA (D-001210-02) and REDD1 siRNA (M-010855-01) were from Thermo Scientific Dharmacon.
Since atovaquone reduced gp130 expression at the cell surface, it was asked whether this effect was accompanied by reduced total gp130 in the cell. To address this question, a time course of atovaquone treatment was performed and total cellular gp130 was measured by Western blotting in U266 cells treated with atovaquone at 20 μM. […] Thus, it was surmised that atovaquone also rapidly downregulates cell-surface gp130, paralleling STAT3 inhibition and preceding the decrease in total gp130. […] Loss of cell-surface gp130 may be due to decreased entry into the plasma membrane or increased internalization. In either case, the decrease in total gp130 observed at longer time points is likely due to degradation of relatively unstable intracellular gp130.

IL-6 receptor = experiment: Flow cytometry of cell-surface IL-6 receptor; format: cell-based, human; details: U266, 2.5 hours; atovaquone 20 μM, brefeldin A 3 μg/ml
Procedure: as §2

Compound | STAT-3 reporter gene expression (STAT3 [1]) | STAT3 phosphorylation (analogs) (STAT3 [2]) | S6 phosphorylation (analogs) (mTOR pathway) | cell-surface expression of gp130 (gp130) | STAT3 phosphorylation with UPR activators (STAT3 [2]) | other results
O=C1C(O)=C(CCCCC2CC[C@H]3CCCC[C@@H]3C2)C(=O)c2ccccc21 (relative stereo) [TDBHN, 2-(4-(trans-decahydronaphth-2-yl)butyl)-3-hydroxy-1,4-naphthoquinone] | inhibited STAT-3 reporter gene expression | inhibited STAT3 and S6 phosphorylation at all concentrations tested | inhibited STAT3 and S6 phosphorylation at all concentrations tested | – | – | –
CC(C)(C)c1nc2c3cc[nH]c(=O)c3c3cc(F)ccc3c2[nH]1 [JAK inhibitor 1] | – | – | – | did not affect gp130 expression | – | –
C/C=C(/C)C(=O)O[C@H]1C(C)=C2[C@H]([C@@H]1OC(=O)CCCCCCC)[C@@](C)(OC(C)=O)C[C@H](OC(=O)CCC)[C@@]1(O)[C@H]2OC(=O)[C@@]1(C)O [Thapsigargin] | – | – | – | – | only brefeldin A decreased STAT3 phosphorylation | –
C[C@H]1CCC/C=C/[C@@H]2C[C@H](O)C[C@H]2[C@H](O)/C=C/C(=O)O1 [brefeldin A] | – | – | – | reduced the cell surface expression of both gp130 and IL-6 receptor | decreased STAT3 phosphorylation | cell-surface expression of IL-6 receptor (IL-6 receptor): reduced the cell surface expression of both gp130 and IL-6 receptor
CC(C)(C)C1CCC(CC2=C(O)C(=O)c3ccccc3C2=O)CC1 (stereo not drawn) [buparvaquone, 2((4-tert-butylcyclohexyl)methyl)-3-hydroxy-1,4-naphthoquinone] | inhibited STAT-3 reporter gene expression | inhibited STAT3 and S6 phosphorylation at all concentrations tested | inhibited STAT3 and S6 phosphorylation at all concentrations tested | – | – | –
Tunicamycin | – | – | – | – | only brefeldin A decreased STAT3 phosphorylation | –
